The record followed here is ChEMBL document CHEMBL1201862, “PubChem BioAssay data set” (2004).

Calls of active or inactive are those of the source.

The target in experiment [1] is T1, Leucine aminopeptidase (Plasmodium falciparum 3D7, UniProt Q8IL11).
T1 sequence (Q8IL11 whole entry): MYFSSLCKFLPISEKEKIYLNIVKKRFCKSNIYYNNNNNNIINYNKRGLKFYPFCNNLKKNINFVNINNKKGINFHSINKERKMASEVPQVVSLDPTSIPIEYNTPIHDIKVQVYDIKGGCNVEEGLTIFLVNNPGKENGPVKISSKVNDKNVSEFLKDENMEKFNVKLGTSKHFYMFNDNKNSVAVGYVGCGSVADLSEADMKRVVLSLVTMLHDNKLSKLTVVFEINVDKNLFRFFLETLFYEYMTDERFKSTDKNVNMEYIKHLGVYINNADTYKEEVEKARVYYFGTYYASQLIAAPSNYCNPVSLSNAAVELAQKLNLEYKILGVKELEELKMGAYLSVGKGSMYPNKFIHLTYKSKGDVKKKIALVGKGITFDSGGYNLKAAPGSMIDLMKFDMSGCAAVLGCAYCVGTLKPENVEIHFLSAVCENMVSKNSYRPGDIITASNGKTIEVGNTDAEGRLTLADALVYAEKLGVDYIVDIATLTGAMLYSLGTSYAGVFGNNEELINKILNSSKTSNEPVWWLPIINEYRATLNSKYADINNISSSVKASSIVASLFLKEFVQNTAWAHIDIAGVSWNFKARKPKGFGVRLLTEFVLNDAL
Nature of the experiment: P. falciparum M17LAP inhibitors, primary screen, biochemical, fluorogenic H-Leu-NHMec substrate, 1536-well (AID 1619). It is filed as functional.

A short description of experiment [2]: mitochondrial function rescue without frataxin homolog – Friedreich's ataxia, plus single-dose screen, dose response (AID 1465).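 Further: yeast depleted of Yfh1p frataxin homolog grown on glycerol needing respiration; WST-1 tetrazolium dye reduction as measure of cellular dehydrogenase metabolic activity.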 Type of experiment: functional.
Experiment [3] addresses T2, Alkaline phosphatase, tissue-nonspecific isozyme (Homo sapiens, UniProt P05186).
T2 sequence (P05186 whole entry): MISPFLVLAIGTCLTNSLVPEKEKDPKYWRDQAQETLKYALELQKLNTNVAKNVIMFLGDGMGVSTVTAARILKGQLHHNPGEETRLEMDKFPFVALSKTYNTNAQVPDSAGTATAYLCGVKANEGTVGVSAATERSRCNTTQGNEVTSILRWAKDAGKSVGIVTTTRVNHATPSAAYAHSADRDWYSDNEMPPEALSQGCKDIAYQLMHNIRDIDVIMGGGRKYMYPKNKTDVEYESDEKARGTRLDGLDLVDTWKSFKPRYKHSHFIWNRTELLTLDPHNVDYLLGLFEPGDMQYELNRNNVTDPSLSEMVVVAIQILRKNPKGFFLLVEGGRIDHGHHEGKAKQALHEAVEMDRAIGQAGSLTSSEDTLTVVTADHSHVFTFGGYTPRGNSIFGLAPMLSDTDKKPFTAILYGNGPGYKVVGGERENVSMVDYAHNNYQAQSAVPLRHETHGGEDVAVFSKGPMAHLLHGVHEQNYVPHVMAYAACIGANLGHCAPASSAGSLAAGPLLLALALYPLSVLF

Experiment [4] deals with HEK293. Nature of the experiment: Fluorescence-based counterscreen for potentiators or agonists of NPY-Y2: cell-based high-throughput dose response assay to identify inhibitors of cyclic nucleotide gated ion channel (CNGC) activity. In this assay, the parental HEK293 cell line transfected with a cyclic-nucleotide gated ion channel (CNGC)-based cAMP sensor is used to measure inhibition of isoproterenol-induced CNGC activity by test compound. It is filed as functional. The settings on record: Homo sapiens. On the technique in general: A counterscreen serves to expose hits that act by an unwanted route or on another target.

In experiment [5] the target is Neuropeptide Y receptor type 2 (Homo sapiens, UniProt P49146). Nature of the experiment: Fluorescence-based cell-based high-throughput dose response assay for agonists of NPY-Y2. [Related pubchem assays: 1703 (Screening assay (CNGC inhibitors).), 1359 (Screening assay (NPY-Y2 potentiators or agonists).), 1304 (Screening assay (NPY-Y1 potentiators or agonists).), 1710 (Screening assay (NPY-Y2 agonists).), 1791 (Summary AID.)]. Type of experiment: functional.

The target of experiment [6] is Neuropeptide Y receptor type 1 (Homo sapiens, UniProt P25929). Nature of the experiment: Fluorescence-based counterscreen for agonists of NPY-Y2: cell-based high-throughput dose response assay for agonists of NPY-Y1. It is filed as functional.
Experiment [7] deals with Cytochrome P450 2D6 (Homo sapiens, UniProt P10635). Nature of the experiment: qHTS Assay for Inhibitors and Substrates of Cytochrome P450 2D6. [Related pubchem assays: 410 ]. It is filed as ADME. The settings on record: read-out: Potency.
For experiment [8], the target named is Peroxisome proliferator-activated receptor gamma/Nuclear receptor coactivator 2 (Homo sapiens, UniProt P37231). It is filed as functional.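 Further: agonist potency for raising coactivator recruitment to the receptor.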
Experiment [9] has as its target Peroxisome proliferator-activated receptor gamma/Nuclear receptor coactivator 1 (Homo sapiens, UniProt P37231). It is filed as functional.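 Further: agonist potency as compounds enhance coactivator SRC-1 recruitment to PPARgamma.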
Experiment [10] concerns the target Peroxisome proliferator-activated receptor gamma/Nuclear receptor coactivator 3 (Homo sapiens, UniProt P37231). It is filed as functional.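 Further: agonist potency for raising coactivator recruitment to the receptor.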
Experiment [11] has as its system Streptococcus. Nature of the experiment: Luminescence Microorganism-Based Dose Response Follow up to Identify Compounds Cytotoxic to Streptococcus. [Related pubchem assays: 1677 (Project Summary), 1915, 1914, 1902 (Retest at Dose), 1900 (Counter Screen), 1662 (Primary HTS)]. It is filed as functional, organism-based.
The target of experiment [12] is T3, Potassium voltage-gated channel subfamily KQT member 2 (Rattus norvegicus, UniProt O88943). Nature of the experiment: Mode of action assay - current amplitude concentration response for derivatives of ZTZ240, a potentiator of KCNQ2 potassium channels. [Related pubchem assays: 2258 (Summary assay for the KCNQ2 potentiators.), 2239 (Primary HTS assay for KCNQ2 potentiators with 305606 compounds tested, and 1644 are found to be active.)]. It is filed as functional.
T3 sequence (O88943 whole entry): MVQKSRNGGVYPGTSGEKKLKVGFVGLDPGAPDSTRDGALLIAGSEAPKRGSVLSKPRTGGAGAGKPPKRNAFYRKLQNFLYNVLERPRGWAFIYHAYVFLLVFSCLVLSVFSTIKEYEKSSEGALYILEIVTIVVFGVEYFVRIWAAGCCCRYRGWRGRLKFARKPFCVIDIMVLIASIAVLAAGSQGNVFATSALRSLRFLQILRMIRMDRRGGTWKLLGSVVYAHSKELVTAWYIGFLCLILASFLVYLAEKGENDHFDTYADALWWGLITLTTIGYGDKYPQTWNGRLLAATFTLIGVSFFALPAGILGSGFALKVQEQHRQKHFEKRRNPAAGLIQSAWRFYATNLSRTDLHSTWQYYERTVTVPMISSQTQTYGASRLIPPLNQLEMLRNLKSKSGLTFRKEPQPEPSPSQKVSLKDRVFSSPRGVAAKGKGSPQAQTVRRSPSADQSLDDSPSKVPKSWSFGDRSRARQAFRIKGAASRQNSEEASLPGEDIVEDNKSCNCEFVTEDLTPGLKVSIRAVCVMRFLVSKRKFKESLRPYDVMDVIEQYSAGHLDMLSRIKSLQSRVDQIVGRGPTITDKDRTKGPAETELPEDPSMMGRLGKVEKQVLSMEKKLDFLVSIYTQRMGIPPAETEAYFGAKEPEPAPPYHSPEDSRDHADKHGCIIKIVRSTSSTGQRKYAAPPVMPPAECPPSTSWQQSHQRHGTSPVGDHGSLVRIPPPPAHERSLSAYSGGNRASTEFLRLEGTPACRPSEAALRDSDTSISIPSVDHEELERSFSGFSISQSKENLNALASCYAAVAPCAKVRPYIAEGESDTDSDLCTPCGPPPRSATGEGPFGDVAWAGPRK

Experiment [13] concerns the target T3, Potassium voltage-gated channel subfamily KQT member 2. Nature of the experiment: Mode of action - deactivation constant concentration response for ztz240, a potentiator of KCNQ2 potassium channels. [Related pubchem assays: 2258 (Summary assay for the KCNQ2 potentiators.), 2239 (Primary HTS assay for KCNQ2 potentiators with 305606 compounds tested, and 1644 are found to be active.)]. It is filed as functional.

A short description of experiment [14]: CCR5-tropic HIV-1 fusion blockers – cell-based, CCR5-tropic Env, dose response (AID 2279). It is filed as functional.
Experiment [15] has as its target Aspartyl aminopeptidase (Plasmodium falciparum 3D7, UniProt Q8I2J3).
Experiment [16] concerns the target Procathepsin L (Homo sapiens, UniProt P07711).
Experiment [17] concerns the target Ras and Rab interactor 1/Tyrosine-protein kinase ABL1 (Homo sapiens, UniProt P00519+Q13671). It is filed as functional.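 Further: biochemical TR-FRET dose-response test measuring inhibition of binding between Rin1 and Abl proteins.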
Experiment [18] deals with T4, Histone-lysine N-methyltransferase NSD2 (Homo sapiens, UniProt O96028).
T4 sequence (O96028 whole entry): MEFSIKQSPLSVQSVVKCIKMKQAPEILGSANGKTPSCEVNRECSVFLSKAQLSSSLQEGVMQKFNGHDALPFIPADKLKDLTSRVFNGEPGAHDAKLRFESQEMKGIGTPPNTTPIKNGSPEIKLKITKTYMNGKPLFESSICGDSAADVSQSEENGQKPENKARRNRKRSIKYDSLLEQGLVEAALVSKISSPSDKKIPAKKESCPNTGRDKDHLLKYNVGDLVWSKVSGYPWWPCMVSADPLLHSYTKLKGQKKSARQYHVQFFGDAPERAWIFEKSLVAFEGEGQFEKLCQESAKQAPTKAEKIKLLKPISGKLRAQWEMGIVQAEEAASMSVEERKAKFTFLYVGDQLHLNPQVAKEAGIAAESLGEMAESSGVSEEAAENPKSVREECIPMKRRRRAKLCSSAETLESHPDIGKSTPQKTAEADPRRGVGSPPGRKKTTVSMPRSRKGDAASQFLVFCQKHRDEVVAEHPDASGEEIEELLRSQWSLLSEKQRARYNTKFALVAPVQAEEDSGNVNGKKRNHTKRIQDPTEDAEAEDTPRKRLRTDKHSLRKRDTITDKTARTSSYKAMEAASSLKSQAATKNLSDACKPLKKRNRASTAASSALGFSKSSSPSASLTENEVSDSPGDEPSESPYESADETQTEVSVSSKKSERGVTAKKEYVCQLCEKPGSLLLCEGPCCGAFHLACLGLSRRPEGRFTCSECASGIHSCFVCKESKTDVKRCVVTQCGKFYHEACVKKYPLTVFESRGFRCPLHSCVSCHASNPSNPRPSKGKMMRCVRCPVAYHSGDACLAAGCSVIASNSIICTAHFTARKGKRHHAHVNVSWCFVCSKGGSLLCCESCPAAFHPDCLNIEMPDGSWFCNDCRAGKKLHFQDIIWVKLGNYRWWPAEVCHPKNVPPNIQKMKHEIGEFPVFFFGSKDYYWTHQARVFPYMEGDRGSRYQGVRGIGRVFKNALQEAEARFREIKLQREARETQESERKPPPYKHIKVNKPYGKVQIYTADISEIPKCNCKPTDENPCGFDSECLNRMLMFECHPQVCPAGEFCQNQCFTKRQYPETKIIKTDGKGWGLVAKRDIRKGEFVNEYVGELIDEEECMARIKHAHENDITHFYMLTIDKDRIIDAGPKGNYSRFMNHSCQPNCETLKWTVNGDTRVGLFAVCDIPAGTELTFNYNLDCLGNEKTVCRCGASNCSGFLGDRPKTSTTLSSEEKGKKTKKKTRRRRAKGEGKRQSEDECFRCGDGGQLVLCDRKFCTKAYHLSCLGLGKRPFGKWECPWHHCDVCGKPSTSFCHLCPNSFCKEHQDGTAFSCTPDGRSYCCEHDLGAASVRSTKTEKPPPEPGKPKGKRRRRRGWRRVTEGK
Type of experiment: biochemical.

Experiment [19] addresses T5, Protein Tat (Human immunodeficiency virus type 1 group M subtype B (isolate HXB2)(HIV-1), UniProt P04608).
T5 sequence (P04608 whole entry): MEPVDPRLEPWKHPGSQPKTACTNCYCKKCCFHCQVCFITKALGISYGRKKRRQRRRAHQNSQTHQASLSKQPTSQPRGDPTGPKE
Type of experiment: functional.

Experiment [20] can be described thus: cells.

Sequence of Procathepsin L (P07711 whole entry): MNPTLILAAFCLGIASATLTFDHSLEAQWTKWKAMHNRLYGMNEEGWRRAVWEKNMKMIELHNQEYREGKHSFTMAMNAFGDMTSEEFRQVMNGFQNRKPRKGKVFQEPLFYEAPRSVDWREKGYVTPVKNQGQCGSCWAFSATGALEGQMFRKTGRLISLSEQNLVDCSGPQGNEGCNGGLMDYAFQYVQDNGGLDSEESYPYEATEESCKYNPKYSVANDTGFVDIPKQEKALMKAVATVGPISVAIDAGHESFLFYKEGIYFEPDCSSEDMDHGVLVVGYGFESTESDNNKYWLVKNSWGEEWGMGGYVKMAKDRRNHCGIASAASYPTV
Sequence of Peroxisome proliferator-activated receptor gamma/Nuclear receptor coactivator 3 (P37231 whole entry): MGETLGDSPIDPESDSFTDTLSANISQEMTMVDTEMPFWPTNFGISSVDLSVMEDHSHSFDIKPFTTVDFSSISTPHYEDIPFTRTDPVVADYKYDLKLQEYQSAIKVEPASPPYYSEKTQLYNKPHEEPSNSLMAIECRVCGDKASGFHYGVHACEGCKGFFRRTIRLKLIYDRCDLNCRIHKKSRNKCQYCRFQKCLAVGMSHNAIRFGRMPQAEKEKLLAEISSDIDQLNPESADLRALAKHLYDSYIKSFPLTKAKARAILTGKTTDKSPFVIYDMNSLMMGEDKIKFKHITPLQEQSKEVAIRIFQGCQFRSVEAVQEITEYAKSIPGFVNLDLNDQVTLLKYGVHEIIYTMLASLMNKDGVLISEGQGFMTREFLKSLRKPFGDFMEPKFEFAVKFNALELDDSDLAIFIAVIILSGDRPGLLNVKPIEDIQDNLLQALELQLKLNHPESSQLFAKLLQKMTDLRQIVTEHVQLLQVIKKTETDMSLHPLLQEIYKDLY
Sequence of Peroxisome proliferator-activated receptor gamma/Nuclear receptor coactivator 3 (Q9Y6Q9 whole entry, further chain): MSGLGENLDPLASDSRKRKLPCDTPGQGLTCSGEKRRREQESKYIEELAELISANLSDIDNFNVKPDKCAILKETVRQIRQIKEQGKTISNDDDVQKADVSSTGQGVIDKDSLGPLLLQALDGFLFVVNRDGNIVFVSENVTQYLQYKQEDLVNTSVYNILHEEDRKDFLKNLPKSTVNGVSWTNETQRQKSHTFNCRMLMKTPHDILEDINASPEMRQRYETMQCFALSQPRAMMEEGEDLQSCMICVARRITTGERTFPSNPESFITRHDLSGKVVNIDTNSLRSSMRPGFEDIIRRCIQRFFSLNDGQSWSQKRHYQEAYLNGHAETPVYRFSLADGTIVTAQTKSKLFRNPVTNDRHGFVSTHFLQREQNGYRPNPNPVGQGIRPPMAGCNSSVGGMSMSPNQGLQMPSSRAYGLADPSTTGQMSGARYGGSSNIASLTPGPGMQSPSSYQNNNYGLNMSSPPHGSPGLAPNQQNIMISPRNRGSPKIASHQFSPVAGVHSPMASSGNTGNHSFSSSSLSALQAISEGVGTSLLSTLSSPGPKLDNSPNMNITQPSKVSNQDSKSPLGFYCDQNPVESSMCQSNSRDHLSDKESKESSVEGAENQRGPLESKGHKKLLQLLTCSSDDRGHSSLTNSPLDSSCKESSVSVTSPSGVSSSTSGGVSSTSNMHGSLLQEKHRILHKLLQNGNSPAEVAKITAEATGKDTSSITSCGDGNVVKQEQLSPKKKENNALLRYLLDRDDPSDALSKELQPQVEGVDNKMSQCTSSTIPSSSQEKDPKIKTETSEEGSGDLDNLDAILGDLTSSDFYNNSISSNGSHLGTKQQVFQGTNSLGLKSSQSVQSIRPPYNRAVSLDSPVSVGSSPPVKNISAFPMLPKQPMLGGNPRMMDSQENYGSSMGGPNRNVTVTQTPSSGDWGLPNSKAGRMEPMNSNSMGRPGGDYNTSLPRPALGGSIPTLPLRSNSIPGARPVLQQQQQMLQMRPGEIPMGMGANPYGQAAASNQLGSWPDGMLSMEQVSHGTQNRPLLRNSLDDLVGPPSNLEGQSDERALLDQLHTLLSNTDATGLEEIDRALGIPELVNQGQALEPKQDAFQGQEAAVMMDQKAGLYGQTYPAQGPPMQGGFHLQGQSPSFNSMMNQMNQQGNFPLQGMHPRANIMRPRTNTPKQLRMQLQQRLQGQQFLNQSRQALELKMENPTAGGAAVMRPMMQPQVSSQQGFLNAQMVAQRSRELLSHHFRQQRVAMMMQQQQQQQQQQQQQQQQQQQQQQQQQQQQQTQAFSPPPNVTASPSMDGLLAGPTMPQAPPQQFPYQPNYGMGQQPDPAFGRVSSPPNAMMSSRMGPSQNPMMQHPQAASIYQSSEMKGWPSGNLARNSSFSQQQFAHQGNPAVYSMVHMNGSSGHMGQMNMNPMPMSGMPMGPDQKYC
Sequence of Peroxisome proliferator-activated receptor gamma/Nuclear receptor coactivator 1 (P37231 whole entry): as the sequence (P37231 whole entry) above
Sequence of Peroxisome proliferator-activated receptor gamma/Nuclear receptor coactivator 1 (Q15788 whole entry, further chain): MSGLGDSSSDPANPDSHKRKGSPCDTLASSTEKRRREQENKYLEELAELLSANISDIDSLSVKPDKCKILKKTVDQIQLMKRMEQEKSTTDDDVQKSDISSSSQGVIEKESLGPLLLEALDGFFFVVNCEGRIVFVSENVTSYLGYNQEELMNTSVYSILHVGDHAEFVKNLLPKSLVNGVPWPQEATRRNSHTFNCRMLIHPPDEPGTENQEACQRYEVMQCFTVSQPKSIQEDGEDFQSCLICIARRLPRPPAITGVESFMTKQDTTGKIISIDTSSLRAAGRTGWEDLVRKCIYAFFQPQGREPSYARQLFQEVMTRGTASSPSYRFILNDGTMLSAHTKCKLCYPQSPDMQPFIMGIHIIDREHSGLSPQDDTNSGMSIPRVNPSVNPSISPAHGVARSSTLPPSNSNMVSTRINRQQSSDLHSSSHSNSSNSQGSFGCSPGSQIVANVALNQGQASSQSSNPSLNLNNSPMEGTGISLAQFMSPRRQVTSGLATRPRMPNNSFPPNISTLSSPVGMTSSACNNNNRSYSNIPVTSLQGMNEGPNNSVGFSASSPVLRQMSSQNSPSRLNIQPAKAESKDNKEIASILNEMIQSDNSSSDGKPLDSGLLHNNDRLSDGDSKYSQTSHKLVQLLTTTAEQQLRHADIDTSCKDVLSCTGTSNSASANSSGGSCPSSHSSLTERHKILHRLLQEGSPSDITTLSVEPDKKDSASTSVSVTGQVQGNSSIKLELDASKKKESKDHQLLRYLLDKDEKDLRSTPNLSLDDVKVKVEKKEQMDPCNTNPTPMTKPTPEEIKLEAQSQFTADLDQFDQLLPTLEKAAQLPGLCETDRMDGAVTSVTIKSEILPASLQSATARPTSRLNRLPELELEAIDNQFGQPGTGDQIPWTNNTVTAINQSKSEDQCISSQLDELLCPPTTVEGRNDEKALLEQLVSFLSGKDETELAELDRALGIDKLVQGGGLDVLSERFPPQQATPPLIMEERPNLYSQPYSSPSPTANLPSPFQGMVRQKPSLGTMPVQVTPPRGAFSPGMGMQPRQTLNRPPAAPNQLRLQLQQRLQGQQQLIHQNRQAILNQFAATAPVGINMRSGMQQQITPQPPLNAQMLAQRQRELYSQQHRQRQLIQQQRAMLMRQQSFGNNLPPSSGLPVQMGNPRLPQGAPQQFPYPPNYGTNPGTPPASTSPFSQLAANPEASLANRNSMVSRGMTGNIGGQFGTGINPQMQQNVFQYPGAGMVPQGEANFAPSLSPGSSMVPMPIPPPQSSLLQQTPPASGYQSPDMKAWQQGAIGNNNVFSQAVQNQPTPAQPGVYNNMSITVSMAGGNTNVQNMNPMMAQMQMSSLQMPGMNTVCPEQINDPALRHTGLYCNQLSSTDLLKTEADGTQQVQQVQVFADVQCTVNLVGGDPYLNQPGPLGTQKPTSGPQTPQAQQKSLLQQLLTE

Broadly, the IC50 is the concentration that gives 50% inhibition. For orientation: EC50 means the midpoint of the concentration-response curve. `N#C/C(=C/c1ccc(N2CCOCC2)o1)C(=O)NC1CCCCC1`: the IC50 in [1] is 109 µM (active). In experiment [2], the EC50 was > 100 µM (active).

On to `Cc1ccc(C)n1-c1ccc(C(=O)NN)s1`, for which the EC50 in experiment [3] is on record as > 100 µM (not active).

On to `O=C(N/N=C/c1ccc(OC(F)F)cc1)c1cccc(S(=O)(=O)N2CCOCC2)c1`, for which the EC50 in experiment [4], in [5] and in experiment [6] was > 35.4 µM (not active) in each case.

For the molecule `CC12C=C(/C=C/CCc3ccco3)C(C)(C1)C(CCc1ccco1)CC2=O` (stereo not given), in [7], the AC50 was 6.31 µM (inconclusive).

Consider `CCOC(=O)c1c(C)[nH]c(C(=O)COC(=O)CNC(=O)C2CCCCC2)c1C`, for which the EC50 in experiment [8], in experiment [9] and in experiment [10] was > 79.4 µM (not active) throughout.

In the case of `Cc1ccc(C(=O)N2c3ccccc3Sc3ccccc32)cc1`, the EC50 in experiment [11] is recorded as > 500 µM (not active).

For `O=C(Nc1ccc(Cl)nc1)c1ccc(F)cc1`, the EC50 in experiment [12] was 1.46 µM (active); in experiment [13], 5.9 µM (active).

On to `O=C1/C(=C\c2ccc(O)c(O)c2)C(c2ccccc2)=NN1c1ccccc1`, for which the IC50 in experiment [14] was 27.1 µM (active).

In the case of `O=C(/C=C/c1ccc(O)c(O)c1)OC1C(O)CC(OC(=O)/C=C/c2ccc(O)c(O)c2)(C(=O)O)CC1O` (stereo not given), the IC50 in [15] was 1.94 µM (active); in [16], > 59.6 µM (not active); in experiment [17], 18.9 µM (inactive); in experiment [19], 85.2 µM (inconclusive); in [20], 31.9 µM (active). In addition, in experiment [18], the AC50 is 5.43 µM (active).
